Data on 21 compounds can be found in US7303889B2, “Ligand for G-protein coupled receptor GPR43 and uses thereof” (Euroscreen S.A., priority 2002, dated 2007).

Test [1] has as its target T1, human GPR43 (Homo sapiens, UniProt O15552).
T1 sequence (O15552 1-330): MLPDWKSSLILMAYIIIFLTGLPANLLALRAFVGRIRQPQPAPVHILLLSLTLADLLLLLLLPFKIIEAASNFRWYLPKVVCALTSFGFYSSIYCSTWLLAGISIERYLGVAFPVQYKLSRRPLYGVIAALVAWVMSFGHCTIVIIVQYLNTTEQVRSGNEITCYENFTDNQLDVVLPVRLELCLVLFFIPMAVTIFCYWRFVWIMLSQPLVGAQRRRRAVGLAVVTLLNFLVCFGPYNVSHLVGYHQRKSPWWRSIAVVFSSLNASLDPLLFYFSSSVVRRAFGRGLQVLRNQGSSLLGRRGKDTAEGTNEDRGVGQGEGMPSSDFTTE
As to the kind of experiment: Accumulation of GTPγ[35S] binding on membranes from CHO-K1 cells expressing human GPR43. The format is biochemical. More on the design: expressed in transfected cells. Particulars: for activity on GTPγ[35S] binding / order of agonist potency: single concentration of each compound, FIG. 8. The protocol: For GPCRs such as GPR43, a measure of receptor activity is the binding of GTP by cell membranes containing receptors. In the method described by Traynor and Nahorski, 1995, Mol. Pharmacol. 47: 848-854, incorporated herein by reference, one essentially measures G-protein coupling to membranes by detecting the binding of labelled GTP. For GTP binding assays, membranes isolated from cells expressing the receptor are incubated in a buffer containing 20 mM HEPES, pH 7.4, 100 mM NaCl, and 10 mM MgCl2, 80 pM ^35S-GTPγS and 3 μM GDP. The assay mixture is incubated for 60 minutes at 30° C., after which unbound labelled GTP is removed by filtration onto GF/B filters. Bound, labelled GTP is measured by liquid scintillation counting. In order to assay for modulation of propionate-induced GPR43 activity, membranes prepared from cells expressing a GPR43 polypeptide are mixed with propionate, and the GTP binding assay is performed in the presence and absence of a candidate modulator of GPR43 activity. […] In this case, propionate-stimulated GTP binding is used as a standard. […] GTPase activity is measured by incubating the membranes containing a GPR43 polypeptide with γ^32P-GTP. Active GTPase will release the label as inorganic phosphate, which is detected by separation of free inorganic phosphate in a 5% suspension of activated charcoal in 20 mM H3PO4, followed by scintillation counting. Controls include assays using membranes isolated from cells not expressing GPR43 (mock-transfected), in order to exclude possible non-specific effects of the candidate compound.
The activity of acetate was examined in a membrane-based functional test.
The activity of other SCFA and related compounds (alcohols, aldehydes, cetone, di-acids . . . ) was evaluated using a single concentration of each in the membrane-cell based assay.

Test [2] addresses T1, human GPR43. As to the kind of experiment: Structure-activity relationships of SCFAs and related compounds on human GPR43 (FIG. 12). More on the design: expressed in transfected cells. Particulars: compared with corresponding non-substituted active compounds.
Test [3] deals with peripheral blood neutrophils. Put plainly: Chemotactic response of neutrophilic granulocytes (48-well chamber). The class given is cell-based, human. Particulars: for shape of chemotactic dose-response: FIG. 17. As to the method: Peripheral blood mononuclear cells were purified from buffy coats of healthy volunteers as previously described (Struyf S, De Meester I, Scharpe S, Lenaerts J P, Menten P, Wang J M, Proost P, Van Damme J., Eur J Immunol Apr. 28, 1998; 28 (4):1262-71). For intracellular calcium measurements, the cells were loaded for 30 min at room temperature with Fura-2AM (Molecular Probes). Calcium transients were monitored by a LS50B spectrofluorimeter (Perkin Elmer) as described (Grynkiewicz G, Poenie M, Tsien R Y., J Biol Chem Mar. 25, 1985;260(6):3440-50) at a final cell concentration of 10^6 cells/ml in buffer containing 125 μM probenecid. Chemotaxis was assessed in 48-well chambers using polycarbonate filter membranes with 3 μm (mesh size) (Neuroprobes, Inc.). The results are represented as chemotactic index (FIG. 17).
Freshly isolated peripheral blood neutrophils from healthy donors were tested for their chemotactic response to sodium acetate and propionate.

The target in test [4] is T1, human GPR43. Put plainly: Inhibition of forskolin-stimulated adenylate cyclase activity in CHO-K1 cells stably expressing human GPR43. The format is cell-based. Details: expressed in transfected cells. The protocol:
(§1) Additional related compounds were tested using the same cells.
SCFA, ranging from 1 carbon to 4 carbon, were tested on CHO-K1 cells stably expressing the human GPR43 for their ability to inhibit the activity of adenylate cyclase stimulated with forskolin.

Test [5] deals with T1, human GPR43. As to the kind of experiment: Production of inositol phosphates in CHO-K1 cells stably expressing human GPR43. The class given is cell-based. More on the design: expressed in transfected cells. As to conditions: PTX-pretreatment prior to stimulation; FIG. 10.
Test [6] concerns human polymorphonuclear (PMN) leukocytes. Particulars: Naccache et al, Fonteriz et al, Nakao et al; cited from earlier work.
The test system is the same in test [7]. Put plainly: Mobilization of intracellular calcium in human neutrophils (Fura-2). The format is cell-based. Particulars: for EC50: FIG. 15 and 16, read-out: EC50 for increase of intracellular calcium. As to the method:
The following experiments were conducted to test whether the human polymorphonuclear (PMN) leukocytes could be activated with acetate and propionate, since the receptor is strongly expressed in peripheral blood cells containing mainly PMNs. Activation was determined by the quantification of the intracellular calcium mobilized from internal pool after activation by acetate and propionate of the cell membrane receptor. PMN were purified from the venous blood of healthy volunteers. Cells were isolated according to established methods. For intracellular calcium measurements, the cells were loaded for 30 min at room temperature with Fura-2AM (Molecular Probes). […] Briefly, neutrophils suspensions (1×10^7 cells/ml) were incubated with 2 μM Fura-2/AM for 30 minutes at 37° C. The cells were then washed free of the extracellular probe, resuspended at 5×10^6 cells/ml and allowed to reequilibrate for 10 minutes at 37° C. Cells were then transferred to the thermostatted cuvette compartment (37° C.) of the fluorometer and the fluorescence monitored (excitation and emission […], 340 and 510 nm respectively).

Test [8] concerns non related human G-protein coupled receptors. As to the kind of experiment: GTPγ[35S] binding on ten membrane preparations of CHO-K1 cells expressing non related human GPCRs. The class given is biochemical.
For test [9], the system named is other GPCRs, such as motilin or histamine H1 receptor. As to conditions: Gqi only or cDNAs for other GPCRs; data not shown.
Test [10] has as its target T1, human GPR43. Particulars: library at 1-100 μM; confirmed by a dose response curve. The protocol: as §1
[11] abbreviates: CHO-K1 cells stably expressing human GPR43, FIG. 4.

Read-outs that look alike come from different tables or passages of the source.

For the compound `O=C(O)CCC(=O)O` [succinate], the “activity on GTPγ[35S] binding” value on human GPR43 [1] was “Inactive”. For the same compound, the “activity on human GPR43” value on human GPR43 [2] is on record as “abolished the signal”.
Regarding `CCCCC(=O)O` [n-valerate], at human GPR43 [1], the “order of agonist potency” value was “acetate=propionate>n-butyrate=isobutyrate=n-valerate=caproate>>formate>>pyruvate=acetoacetate”.
As to f-met-leu-phe [fMLP], the “maximal chemotactic index relative to SCFA” value in test [3] (on average, data not shown) was “at least 3 fold”.
As to `O=CO` [formate], the “activation of the human receptor (maximal response compared to acetate and propionate)” value on human GPR43 [1] (data not shown) is recorded as “partly activate”. Also, the “order of agonist potency” value at human GPR43 [1] was “acetate=propionate>n-butyrate=isobutyrate=n-valerate=caproate>>formate>>pyruvate=acetoacetate”. In addition, at human GPR43 [4], the “decrease of forskolin-stimulated adenylate cyclase activity” value (shortened to “decrease”) turned out to be 75% and the “rank order of potency to inhibit forskolin-stimulated adenylate cyclase” value is given as “C2 (acetate)≧C3 (propionate)>C4 (butyrate)>>C1 (formate)”.
`NCC(=O)O` [glycine]: at human GPR43 [2], the “activity on human GPR43” value was “decreased activity without abolishing it”.
For the compound `CC(C)=O` [acetone], at human GPR43 [1], the “activity on GTPγ[35S] binding” value is “Inactive”.
Consider `N[C@@H](CCC(=O)O)C(=O)O` [L-glutamate], for which the “activity on GTPγ[35S] binding” value at human GPR43 [1] is reported as “Inactive”. Further, on human GPR43 [2], the “activity on human GPR43” value is recorded as “abolished the signal”.
For `CCCC(=O)O` [butyrate], the “decrease” value at human GPR43 [4] (setting [11]) turned out to be 75%.
For the compound `N[C@@H](CO)C(=O)O` [serine], the “activity on human GPR43” value on human GPR43 [2] was “abolished the activity”.
As to `O=C(O)CC(O)(CC(=O)O)C(=O)O` [citrate], the “activity on GTPγ[35S] binding” value at human GPR43 [1] is reported as “Inactive”. In addition, the “activity on human GPR43” value on human GPR43 [2] is on record as “abolished the signal”.
On to `CC=O` [acetaldehyde], for which the “activity on GTPγ[35S] binding” value at human GPR43 [1] is on record as “Inactive”.
With `O=C(O)CC(=O)O` [malonate], on human GPR43 [1], the “activity on GTPγ[35S] binding” value is reported as “Inactive”. Also, at human GPR43 [2], the “activity on human GPR43” value is listed as “abolished the signal”.
Consider `NCCCC(=O)O` [GABA], for which the “activity on GTPγ[35S] binding” value on human GPR43 [1] is “Inactive”.
Turning to `CC(=O)CC(=O)O` [acetoacetate], the “order of agonist potency” value on human GPR43 [1] is reported as “acetate=propionate>n-butyrate=isobutyrate=n-valerate=caproate>>formate>>pyruvate=acetoacetate”. The “activity on human GPR43” value on human GPR43 [2] is recorded as “decreased but consistent activity”.
For the compound `CC(O)CC(=O)O` (racemic) [DL-β-hydroxybutyrate], on human GPR43 [1], the “activity on GTPγ[35S] binding” value is “Inactive”. Besides, the “activity on human GPR43” value on human GPR43 [2] is on record as “is not active”.
Take `CCC(=O)O` [propionate]: at human GPR43 [5], the “PTX sensitivity of the accumulation of total inositol phosphates” value is on record as “non PTX sensitive”. In test [6], the “EC50 for cytoplasmic calcium mobilization in PMN” value is given as “millimolar”. The “order of agonist potency” value at human GPR43 [1] is “acetate=propionate>n-butyrate=isobutyrate=n-valerate=caproate>>formate>>pyruvate=acetoacetate”. Besides, the “shape of chemotactic dose-response” value in test [3] is given as “classical bell-shaped dose-response curve”. For the same compound, the “effect of increasing concentration on intracellular calcium” value in [7] is “concentration-dependent increase of intracellular calcium”. Moreover, the EC50 in [7] (Leukocyte) was 540 µM. In test [8] (adenosine A1, adrenergic 2C, CRF 1, CCR3, LTB4, M4, neuropeptide FF 2S, opioid 3, 5-HT1A, sst5 receptors), the “stimulation of GTPγ[35S] binding in membranes with non related receptors” value was “not able to stimulate any binding”. Further, the “decrease” value on human GPR43 [4] (setting [11]) stood at 75%. Moreover, the “rank order of potency to inhibit forskolin-stimulated adenylate cyclase” value on human GPR43 [4] (SCFA from 1 carbon to 4 carbon, FIG. 4) is reported as “C2 (acetate)≧C3 (propionate)>C4 (butyrate)>>C1 (formate)”.
For `O=C(O)C(=O)O` [oxalate], the “activity on GTPγ[35S] binding” value on human GPR43 [1] is given as “Inactive”. Further, the “activity on human GPR43” value on human GPR43 [2] is “abolished the signal”.
Take `CC(C)C(=O)O` [isobutyrate]: the “order of agonist potency” value at human GPR43 [1] is recorded as “acetate=propionate>n-butyrate=isobutyrate=n-valerate=caproate>>formate>>pyruvate=acetoacetate”.
Turning to `CCCCCC(=O)[O-].CCCCCC(=O)[O-].[Ca+2]` [caproate], on human GPR43 [1], the “order of agonist potency” value was “acetate=propionate>n-butyrate=isobutyrate=n-valerate=caproate>>formate>>pyruvate=acetoacetate”.
Turning to `CCO` [ethanol], on human GPR43 [1], the “activity on GTPγ[35S] binding” value was “Inactive”.
Regarding `CC(=O)O` [acetate], the “PTX sensitivity of the accumulation of total inositol phosphates” value at human GPR43 [5] was “non PTX sensitive”. Also, in [6], the “EC50 for cytoplasmic calcium mobilization in PMN” value is reported as “millimolar”. Besides, at human GPR43 [1] (assay buffer containing 120 mM sodium or potassium, FIG. 7), the “activation of GTPγ[35S] binding, sodium versus ammonium salt” value was “equipotent”. At human GPR43 [1] (compared with the cell-based cAMP assay, FIG. 6), the “potency on accumulation of GTPγ[35S] binding” value is recorded as “comparable to that observed in the cell-based functional assay monitoring cAMP levels”. Also, the “order of agonist potency” value on human GPR43 [1] was “acetate=propionate>n-butyrate=isobutyrate=n-valerate=caproate>>formate>>pyruvate=acetoacetate”. Further, in test [3], the “shape of chemotactic dose-response” value is listed as “classical bell-shaped dose-response curve”. In [7], the “effect of increasing concentration on intracellular calcium” value was “concentration-dependent increase of intracellular calcium” and the EC50 is 537 µM. Further, the “activation of control cells (inositol phosphates)” value in test [9] is listed as “not activated”. In addition, the “result of ligand screening” value on human GPR43 [10] is recorded as “specific activity”. Besides, the “stimulation of GTPγ[35S] binding in membranes with non related receptors” value in test [8] was “not able to stimulate any binding”. At human GPR43 [4], the “decrease” value came to 75% and the “rank order of potency to inhibit forskolin-stimulated adenylate cyclase” value is “C2 (acetate)≧C3 (propionate)>C4 (butyrate)>>C1 (formate)”. Besides, the “observed effect on adenylate cyclase after overnight preincubation with Pertussis Toxin (PTX)” value on human GPR43 [4] (FIG. 5) is on record as “totally abolished”.
